Data as given in paper PMC11435217, “In Vitro Studies of Genistein Lipophilic Derivatives as Potential UV Radiation Protectors” (Pharmaceuticals, 2024).
Read-outs that look alike come from different tables or passages of the source. Blank lines part the entries; values can stand above or below the compound they belong to.

Assays:
[1] = tested on: NHDF (normal human dermal fibroblasts); assay: Determination of EC50 values, MTS assay, NHDF; type: cell-based; settings: read-out: EC50 (±SE)
Protocol: (§1) NHDFs were purchased from Lonza Group Ltd.—Lonza Verviers (Verviers, Belgium), and the human malignant melanoma (Me45) cell line was obtained from the Maria Skłodowska-Curie Memorial Cancer Center and National Institute of Oncology Branch Gliwice, Poland. […] During the culturing periods, cells were passaged before confluency reached 80% in culture flasks and washed regularly with PBS.
(§2) The EC50 values of genistein and its derivatives for both cell lines were determined using the MTS assay (Cell Titer 96 AQueous One Solution Cell Proliferation Assay, Promega, Madison, WI, USA). Cells were seeded in 96-well plates (5 × 10^3 cells/well) and incubated for 24 h at 37 °C in 5% CO2. Subsequently, the cells were treated with twelve concentrations of each compound ranging from 1–100 µM for 48 h at 37 °C in 5% CO2. Afterwards, the medium, including the investigated compounds, was removed from all wells and replaced with PBS. In total, 20 µL of MTS was added to each well. Plates were then incubated for 2 h at 37 °C in 5% CO2. The absorbance was measured at λ = 490 nm using an Epoch microplate reader (BioTek, Winooski, VT, USA). EC50 values were calculated using Matlab software (Matlab R2022a, MathWorks, Natick, MA, USA).

[2] = tested on: estrogen receptors ERα and ERβ; settings: cited from earlier work
[3] = tested on: Me45 (human malignant melanoma cell line); assay: Determination of EC50 values, MTS assay, Me45; type: cell-based; settings: read-out: EC50 (±SE)
Protocol: as §1, §2

NHDFs [4] = assay: Genotoxicity, micronucleus (MN) assay, NHDF; type: cell-based, human; settings: 5 µM, 48 h
Protocol: (§3) Both cell types were seeded in 6-well plates (2.5 × 10^4 cells/well) and incubated for 24 h at 37 °C in 5% CO2. After incubation, the medium in the wells was changed to 5 µM solutions of genistein, 4′-L-Gen, W-Bn-Gen, or W5-Gen in DMEM and incubated for 1 h at 37 °C in 5% CO2. Half of the treated cells were irradiated, as described above. Afterwards, all the cells were treated with […] cytochalasin B and incubated for 48 h at 37 °C in 5% CO2. Subsequently, cells from each well were trypsinized, washed twice in PBS, and mixed with frosted (−20 °C) Carnoy’s solution (methanol: acetic acid, v/v 3:1). After 2 h, 50 µL of each suspension was placed on a microscopic slide and dried. Before microscopic analysis, slides were stained with 2 µg/mL DAPI (dissolved in DMSO) and covered with cover glasses. Slides were observed using a fluorescent microscope (Zeiss Axio Imager. M1 with EC Plan- NEOFLUAR 40× objective, Zeiss, Oberkochen, Germany). A total of 500 cells on each slide were counted, taking into account binucleated, binucleated with MN, mononucleated, and apoptotic cells. The NDI was calculated using a modified method by Eastmond and Tucker (1989) according to the following Equation (2):(2) NDI=MNu+2(Bnu+BNuMN)/∑cells where MNu is the number of cells with one nucleus, BNu is the number of binucleated cells, and BNuMN is the number of binucleated cells with MN.

Me45 cells [5] = assay: Cell cycle analysis (flow cytometry, PI), Me45; type: cell-based, human; settings: 5 µM, 48 h, not exposed to UV
Protocol: (§4) Cells from both cell lines were seeded in 12-well plates (2.5 × 10^4 cells/well) and incubated for 24 h at 37 °C in 5% CO2. The medium in the wells was replaced with fresh DMEM. Cells were treated with 5 µM of genistein, 4′-L-Gen, W5-Gen, or WBn-Gen for 48 h. Medium containing the test substances was removed, and the cells were collected by trypsinization (followed by neutralization of trypsin with medium) in Eppendorf tubes. Tubes were centrifuged (2000 rpm, 3 min), and the supernatant was removed. Subsequently, the fixation of cells in frozen 96% ethanol took place. The ethanol was removed, and cells were washed twice in PBS. Cells were suspended in tubes using 50 µL of […] RNase and then incubated for 15 min at room temperature. Cells were stained with […] propidium iodide solution in PBS and incubated for 20 min at room temperature. Directly before flow cytometry analysis, cells were agitated on a vortex mixer. Cell cycle analysis was performed using a BD FACS Canto flow cytometer, which counted 10,000 cells from every probe. The number of cells in each cell cycle phase was counted by measuring the […] intensity using Diva software (Bd FACSDiva v9.0, Becton Dickinson, Franklin Lakes, NJ, USA).

Lipophilicity (Log P) = type: physicochemical
From the text: Table 2 Genistein and its derivatives investigated in the study. | column: Log P

[6] = Protective potential against UV irradiation, MTS assay, Me45; type: cell-based; settings: human
Protocol: Cells from each cell line were seeded in three groups (0, 24, and 48 h) in 96-well plates (5 × 10^3 cells/well) and incubated for 24 h at 37 °C in 5% CO2. Afterwards, the medium in all wells was removed, and cells were treated with 5 µM of genistein, 4′-L-Gen, W-Bn-Gen, or W5-Gen. The chemicals added to the 0 h time point plates were dissolved in PBS. DMEM was used to prepare the chemical solutions for the 24- and 48-h plates.
After incubation, half of the wells on each plate were irradiated with UVC 2 kJ/m^2 in a Crosslinker CL-1000 UV (UVP) device (Ultra-Violet Products Ltd., Cambridge, UK). The MTS assay was performed immediately after irradiation for 0 h plates and after 24 and 48 h of incubation for the other two time points. Before conducting the MTS test, the medium in the 24 and 48 h plates was discarded and replaced with PBS.

Me45 cells [7] = assay: Genotoxicity, micronucleus (MN) assay, Me45; type: cell-based, human; settings: 5 µM, 48 h, exposed and not exposed to UV radiation
Protocol: as §3

NHDFs [8] = assay: Cell cycle analysis (flow cytometry, PI), NHDF; type: cell-based, human; settings: 5 µM, 48 h, not exposed to UV
Protocol: as §4

[9] = 48 h treatment, 1–100 µM, concentration causing 50% toxicity
[10] = Me45, 48 h treatment, 1–100 µM, concentration causing 50% toxicity

SMILES: O=c1c(-c2ccc(O)cc2)coc2cc(O)cc(O)c12 [Gen, Genistein]
EC50 ([1]; 48 h): 8.6 µM
binding to ERβ versus ERα, times more strongly [2]: 20–30 times
EC50 ([3]; 48 h): 78.2 µM
effect on number of cells with MN (in words) (NHDFs [4]; NHDF): decreased the number of cells with MN
suppression of the G1 phase, ranking (in words) (Me45 cells [5]): strongest effect
logP (Lipophilicity (Log P); method not stated, read-out: Log P): 1.74
mortality at 0 h, 5 µM ([6]; Me45, 5 µM, shortest incubation (first time point, before the 24 h reading), read-out: mortality compared to control untreated cells): 50%
effect on number of cells with MN (in words) (Me45 cells [7]): increases the number of cells with MN

logP (Lipophilicity (Log P)): 4.04
SMILES: O=C(OCc1ccccc1)Oc1cc(O)c2c(=O)c(-c3ccc(O)cc3)coc2c1 [WBn-Gen, bezyl-7-O-genistein carbonate]
EC50 [1, 9]: 6 µM
EC50 [3, 10]: 71.2 µM
suppression of the cell cycle in the G2/M phase, cells compared to the controls (NHDFs [8]): 6%
DNA damage (percentage of binucleated cells with MN) (NHDFs [4]; human): 10.5–11%

SMILES: CCCCCCCCCCCC(=O)Oc1ccc(-c2coc3cc(O)cc(O)c3c2=O)cc1 [4′-L-Gen, 4′-genistein dodecanate]
EC50 ([1]; 48 h): 6.5 µM
EC50 ([3]; 48 h): 60.5 µM
suppression of the G1 phase, ranking (in words) (Me45 cells [5]): weakest effect
logP (Lipophilicity (Log P)): 5.71
mortality at 0 h, 5 µM [6]: ~10%
viability at 48 h, 5 µM ([6]; Me45, 5 µM, after 48 h, both exposed and not exposed to UV radiation, read-out: viability of treated cells much lower than in the control samples): ~50%

logP (Lipophilicity (Log P)): 3.96
SMILES: CCCCCOC(=O)Oc1cc(O)c2c(=O)c(-c3ccc(O)cc3)coc2c1 [Compound W5-Gen, n-pentyl-7-O-genistein carbonate]
EC50 [1, 9]: 5.6 µM
EC50 [3, 10]: 92.2 µM
